Reference: US9341616B2, “Sweet taste receptor chimeric proteins and use thereof” (AJINOMOTO CO., INC., priority 2014, dated 2016)
Residues, ends and D or L forms follow the SMILES beside them.

What was measured:
[1] = biological target: hT1R2/T1R3mosaicB (UniProt Q8TE23+Q925D8, A558R/A588V/A645S/A698V/A702T/A793V/A807V/A88D/C582S/C678S/E725V/F541I/F612A/F622V/F695L/F71L/G86K/H728R/I152V/I617V/I706V/I740A/I803L/K555R/K565R/K818R/K827G/L151M/L560F/L684P/L68N/L72W/L735F/L823M/L825Q/M644L/M744T/M74L/N547G/N675D/P545F/P561R/P564S/P67S/Q123R/Q550E/Q611L/Q757R/Q795R/Q831P/R632Q/S112P/S124D/S576L/S595F/S610P/S635P/S637R/S679G/S717H/T109A/T542A/T663I/T694M/T813A/V120A/V573A/V584A/V718M/V723A/V729T/V738A/V805L/V812A/V821L/W599R/W676R/W824R/Y680C/Y794L); details: Table 6; genes hT2/T1R3mB (hT1R2, T1R3mB); HEK293E cells
[2] = biological target: hT1R2/T1R3mosaicC (UniProt Q8TE23+Q925D8, A558R/A588V/A645S/A698V/A702T/A793V/A807V/C582S/C678S/D172E/D176A/D217E/E221Q/E725V/F541I/F612A/F622V/F695L/H728R/I617V/I706V/I740A/I803L/K555R/K565R/K818R/K827G/L560F/L684P/L735F/L823M/L825Q/M644L/M744T/N203E/N231A/N547G/N675D/P545F/P561R/P564S/Q195T/Q550E/Q611L/Q757R/Q795R/Q831P/R173L/R632Q/S168G/S205G/S228A/S576L/S595F/S610P/S635P/S637R/S679G/S717H/T199E/T542A/T663I/T694M/T813A/V197A/V198A/V573A/V584A/V718M/V723A/V729T/V738A/V805L/V812A/V821L/W599R/W676R/W824R/Y680C/Y794L); details: Table 6; genes hT2/T1R3mC (hT1R2, T1R3mC); HEK293E cells
Chain of hT1R2/T1R3mosaicC (Q8TE23 20-839, stated change not applied): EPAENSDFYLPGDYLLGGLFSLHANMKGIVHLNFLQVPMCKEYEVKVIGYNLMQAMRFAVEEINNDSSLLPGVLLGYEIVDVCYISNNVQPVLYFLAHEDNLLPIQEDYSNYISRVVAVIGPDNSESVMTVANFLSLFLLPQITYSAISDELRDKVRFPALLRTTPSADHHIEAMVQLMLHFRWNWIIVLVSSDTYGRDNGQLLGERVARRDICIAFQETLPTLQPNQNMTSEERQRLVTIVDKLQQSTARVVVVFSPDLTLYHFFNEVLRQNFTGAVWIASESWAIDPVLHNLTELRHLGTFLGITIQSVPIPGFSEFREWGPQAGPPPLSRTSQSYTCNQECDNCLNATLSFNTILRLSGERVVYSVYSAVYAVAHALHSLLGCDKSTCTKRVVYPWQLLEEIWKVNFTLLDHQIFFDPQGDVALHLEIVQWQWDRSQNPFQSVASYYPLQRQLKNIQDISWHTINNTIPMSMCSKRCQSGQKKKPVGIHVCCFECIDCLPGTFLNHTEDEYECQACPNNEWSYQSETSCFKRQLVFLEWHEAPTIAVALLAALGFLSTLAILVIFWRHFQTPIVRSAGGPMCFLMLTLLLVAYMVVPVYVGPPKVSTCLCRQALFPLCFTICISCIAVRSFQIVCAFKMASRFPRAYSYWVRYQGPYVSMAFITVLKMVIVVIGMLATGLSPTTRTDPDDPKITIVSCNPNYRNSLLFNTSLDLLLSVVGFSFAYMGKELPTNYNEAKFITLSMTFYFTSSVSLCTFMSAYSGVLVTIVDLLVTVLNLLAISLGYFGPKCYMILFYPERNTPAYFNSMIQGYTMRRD
Chain of hT1R2/T1R3mosaicC (Q925D8 with tags, fused parts or gaps with the stated changes limits assumed): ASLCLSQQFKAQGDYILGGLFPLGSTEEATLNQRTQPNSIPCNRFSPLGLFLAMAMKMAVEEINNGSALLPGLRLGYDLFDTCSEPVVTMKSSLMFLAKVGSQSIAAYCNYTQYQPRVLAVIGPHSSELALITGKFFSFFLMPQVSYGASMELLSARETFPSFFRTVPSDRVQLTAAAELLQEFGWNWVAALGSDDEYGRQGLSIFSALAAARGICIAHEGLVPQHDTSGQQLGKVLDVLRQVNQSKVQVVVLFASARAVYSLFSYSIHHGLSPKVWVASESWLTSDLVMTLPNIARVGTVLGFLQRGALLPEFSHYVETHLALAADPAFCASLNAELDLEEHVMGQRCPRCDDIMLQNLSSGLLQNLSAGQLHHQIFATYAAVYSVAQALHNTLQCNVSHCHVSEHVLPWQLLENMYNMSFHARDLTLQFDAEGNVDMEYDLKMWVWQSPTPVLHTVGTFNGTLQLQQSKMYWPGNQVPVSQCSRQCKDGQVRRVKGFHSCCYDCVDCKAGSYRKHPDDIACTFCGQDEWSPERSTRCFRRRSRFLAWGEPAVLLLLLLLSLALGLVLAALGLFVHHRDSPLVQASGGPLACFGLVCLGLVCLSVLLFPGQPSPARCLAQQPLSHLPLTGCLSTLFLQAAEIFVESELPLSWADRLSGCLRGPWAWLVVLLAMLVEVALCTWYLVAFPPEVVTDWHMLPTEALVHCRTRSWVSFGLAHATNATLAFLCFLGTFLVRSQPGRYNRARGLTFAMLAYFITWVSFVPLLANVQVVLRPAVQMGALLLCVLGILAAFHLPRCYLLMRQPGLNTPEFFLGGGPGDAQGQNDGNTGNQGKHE

Chain of hT1R2/T1R3mosaicB (Q8TE23 20-839, stated change not applied): as the sequence (Q8TE23 20-839, stated change not applied) above
Chain of hT1R2/T1R3mosaicB (Q925D8 with tags, fused parts or gaps with the stated changes limits assumed): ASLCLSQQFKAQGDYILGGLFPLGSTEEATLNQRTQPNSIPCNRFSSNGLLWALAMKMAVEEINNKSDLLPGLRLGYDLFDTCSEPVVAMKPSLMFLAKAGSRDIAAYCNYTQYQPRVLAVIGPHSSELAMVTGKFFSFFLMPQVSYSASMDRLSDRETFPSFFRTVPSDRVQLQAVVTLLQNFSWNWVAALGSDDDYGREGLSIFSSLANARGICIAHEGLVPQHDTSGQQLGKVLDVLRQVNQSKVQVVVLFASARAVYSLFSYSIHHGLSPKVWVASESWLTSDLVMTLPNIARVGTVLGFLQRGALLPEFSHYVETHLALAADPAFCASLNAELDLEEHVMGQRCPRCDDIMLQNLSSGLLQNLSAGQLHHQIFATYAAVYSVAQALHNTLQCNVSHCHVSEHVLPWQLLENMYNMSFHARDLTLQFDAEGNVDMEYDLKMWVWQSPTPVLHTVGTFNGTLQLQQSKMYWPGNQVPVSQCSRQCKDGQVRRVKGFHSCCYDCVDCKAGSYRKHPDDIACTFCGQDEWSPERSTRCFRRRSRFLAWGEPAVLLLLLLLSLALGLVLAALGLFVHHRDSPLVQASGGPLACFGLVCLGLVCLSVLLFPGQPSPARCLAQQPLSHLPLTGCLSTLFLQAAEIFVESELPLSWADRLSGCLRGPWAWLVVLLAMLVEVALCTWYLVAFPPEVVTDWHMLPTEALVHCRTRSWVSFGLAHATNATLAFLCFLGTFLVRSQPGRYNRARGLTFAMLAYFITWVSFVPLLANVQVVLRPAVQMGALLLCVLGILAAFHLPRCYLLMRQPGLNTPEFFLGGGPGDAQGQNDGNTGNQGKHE

Row | SMILES | S/N [1] | S/N [2]
1 | COC(=O)[C@H](Cc1ccccc1)NC(=O)[C@@H](N)CC(=O)O [Aspartame, aspartame] (HELM PEPTIDE1{D.F.[CO[*:1]]}$$$$V2.0) | 5.4 | 4.5
2 | OC[C@H]1O[C@H](O[C@]2(CCl)O[C@H](CCl)[C@@H](O)[C@@H]2O)[C@H](O)[C@@H](O)[C@H]1Cl [Sucralose, sucralose] | 4.1 | 5.7
3 | O=C1NS(=O)(=O)c2ccccc21.[Na] [Saccharin Na, sodium saccharin] | 5.4 | 3.6
4 | COC(=O)[C@H](Cc1ccccc1)NC(=O)[C@H](CC(=O)O)NCCCc1ccc(OC)c(O)c1 [Advantame, advantame] | 8.5 | 7.8
5 | C[C@H](NC(=Nc1ccc(C#N)cc1)NCC(=O)O)c1ccccc1 [SC-45647, [3-[(S)-1-phenylethyl]-2-(4-cyanophenyl)guanidino]acetic acid] | 7.0 | 5.4
6 | OC[C@H]1O[C@@](CO)(O[C@H]2O[C@H](CO)[C@@H](O)[C@H](O)[C@H]2O)[C@@H](O)[C@@H]1O [Sucrose, sucrose] | 4.7 | 3.4
7 | CC1=CC(=O)NS(=O)(=O)O1 [Acesulfame K, acesulfame potassium] | 5.5 | 3.2
8 | COC(=O)[C@H](Cc1ccccc1)NC(=O)[C@H](CC(=O)O)NCCC(C)(C)C [Neotame, neotame] | 6.0 | 7.1
9 | COc1ccc(CCC(=O)c2c(O)cc(O[C@@H]3O[C@H](CO)[C@@H](O)[C@H](O)[C@H]3O[C@@H]3O[C@@H](C)[C@H](O)[C@@H](O)[C@H]3O)cc2O)cc1O [NHDC, neohesperidin dihydrochalcone] | 4.8 | 3.8
